As usually defined, the IC50 is the concentration needed to halve the response being measured.

The text below walks through data of patent US5166214A, “Use of imidazoles for the treatment of atherosclerosis” (priority 1990, dated 1992).

Assay [1] deals with murine macrophage-like cell line J774.A1. As to the kind of experiment: Inhibition of cholesterol esterification in mammalian cells (macrophage assay). The note with it: J774.A1 macrophages loaded with ac-LDL, 14C-oleic acid; read-out: Cholesterol Esterification IC50. The class given is cell-based. As for the experimental part:
B. Assay of the Inhibition of Cholesterol Esterification in Mammalian Cells
The esterification of cholesterol was determined in the murine macrophage-like cell line J774.A1. Cells were seeded in 35 mm wells at a density of 300,000 cells per well in 2 mls of Dulbecco's Eagle Medium (DMEM) supplemented with 10% fetal bovine serum (FBS). Cells were incubated at 37° C. in an atmosphere of 5% CO2 and 93% humidity. After 24 hours the media was changed to 0.68 mls 10% FBS-DMEM containing 34 μg of acetylated human low density lipoprotein (ac-LDL) to increase the intracellular concentration of cholesterol and promote esterification. At 41 hours, various inhibitors were added to the cells in DMSO (10 μl/ml maximum). At 43 hours, the cells were pulsed with 0.1 mM ^14 C-oleic acid (10,000 dpm/nmol) complexed with BSA (bovine serum albumin) to follow cholesterol ester formation. The experiment was terminated at 45 hours by washing the monolayers 3 times with 3 ml of Tris-buffered saline at 4° C. The lipids were extracted by incubating the monolayers with 1.5 ml of hexane:isopropanol (3:2, v/v) for 30 min. under gentle agitation. During this period, 10,000 dpm 3H-cholesteryl linoleate and 10 μg of cholesteryl oleate were added as an internal standard and carrier respectively. The organic solvent was removed and the cells were washed with an additional 1.0 ml of hexane: isopropanol which was combined with the original extract. The cells were allowed to dry overnight, digested with 1.5 ml of 0.2N sodium hydroxide for 1 hour and an aliquot of the solubilized protein used for protein determination using the Lowry method. The organic extract was taken to dryness, the residue resuspended in 100 μl of chloroform and the lipids separated on silica gel impregnated glass fiber plates using a hexane:diethylether:acetic acid (170:30:1, v/v/v) solvent system. Individual lipids were visualized with iodine and the cholesteryl ester spot cut out and transferred to scintillation vials to determine the amount of radioactivity. The conversion of oleic acid to cholesteryl ester in the control averaged 0.54 […] and was increased upon the addition of ac-LDL to about 10.69±0.69 […]. […] It should be noted that many of the intermediates had inhibitory activity in the in vitro ACAT assay and in the macrophage assay.

For assay [2], the target named is T1, Acyl-CoA: Cholesterol Acyltransferase (ACAT) (Rattus norvegicus, UniProt Q7TQM4).
T1 construct: Microsomes were obtained by differential centrifugation; from tissue; host or cells: liver microsomes of male Sprague Dawley rats
T1 sequence (Q7TQM4 1-524): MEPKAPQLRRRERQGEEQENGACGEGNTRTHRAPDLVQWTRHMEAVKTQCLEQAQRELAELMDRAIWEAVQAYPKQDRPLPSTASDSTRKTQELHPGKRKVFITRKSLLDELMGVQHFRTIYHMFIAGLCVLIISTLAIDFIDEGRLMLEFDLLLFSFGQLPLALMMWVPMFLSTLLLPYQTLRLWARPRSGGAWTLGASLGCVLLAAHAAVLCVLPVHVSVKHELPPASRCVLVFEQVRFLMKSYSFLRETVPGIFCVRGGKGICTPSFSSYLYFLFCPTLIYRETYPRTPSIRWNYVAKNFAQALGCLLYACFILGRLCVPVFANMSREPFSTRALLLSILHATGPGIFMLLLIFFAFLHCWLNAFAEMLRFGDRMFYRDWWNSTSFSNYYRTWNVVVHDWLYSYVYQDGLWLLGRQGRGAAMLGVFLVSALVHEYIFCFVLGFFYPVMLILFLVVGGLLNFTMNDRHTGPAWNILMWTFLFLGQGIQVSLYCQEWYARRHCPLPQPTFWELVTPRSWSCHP
As to the kind of experiment: Inhibition of acyl-CoA: cholesterol acyltransferase (ACAT) in hepatic microsomes (in vitro). The class given is biochemical, rat (male Sprague Dawley). The settings on record: 75 μM 14C-oleoyl-CoA, pH 7.4, 37° C. On the procedure:
A. Assay of the Inhibition of Acyl-CoA: Cholesterol Acyltransferase (ACAT) in Hepatic Microsomes
The ability of the compounds to inhibit ACAT, the enzyme responsible for the intracellular synthesis of cholesteryl esters, was tested as follows. Male Sprague Dawley rats weighing 150-300 g, were fed rat chow ad libitum. The animals were fasted for twenty-four hours prior to being sacrificed by decapitation. The livers were perfused in situ with 50 ml of cold 0.25M sucrose, excised, and homogenized in three volumes of 0.1M phosphate buffer, pH 7.4, that contained 0.5 mM EDTA (ethylenediaminetetraacetic acid), 1.0 mM glutathione, 0.25M sucrose and […]. Microsomes were obtained by differential centrifugation; the supernatant from an initial spin at 15,000×g for 15 minutes was centrifuged at 105,000×g for 1 hour to pellet the microsomes. The microsomes were suspended in homogenization buffer, reisolated by centrifugation, and stored at -70° C. Microsomes were used within one month of preparation.
The control assay in a final volume of 200 μl consisted of 200 μg of microsomal protein, 75 μM ^14 C-oleoyl-CoA (10,000 dpm/nmol) in 0.1M phosphate, pH 7.4, that contained 1 mM glutathione. Compounds were added in 5 μl of DMSO (dimethyl sulfoxide) and additional controls were run with DMSO only. All components, except the oleoyl-CoA, were preincubated for 15 min. at 37° C. prior to the initiation of the reaction by the addition of oleoyl-CoA. The assay was terminated after 10 min by the addition of 4 ml of chloroform:methanol (2:1, v/v). 20,000 dpm of ^3 H-cholesteryl oleate and 10 μg of unlabeled cholesteryl oleate and oleic acid were added as an internal standard and carriers, respectively. After allowing 10 min. for lipid extraction, the samples were centrifuged at 1,000×g for 10 min. to separate the solvent layers. The chloroform layer containing the neutral lipids was spotted onto a Baker SI250-Pa silica gel TLC plate and the plate developed using a hexane: diethyl ether: acetic acid (170:30:1 v/v/v) mobile phase. The lipids were visualized by their interaction with iodine vapor and the cholesteryl ester spot was scraped into a scintillation vial and counted.

Setting [3] is: rat hepatic microsomes, read-out: In Vitro ACAT IC50.

Molecules are shown by their SMILES. Where two headings read alike, the source gives them in different places.

`CCCCCCCN(CCCCCSc1nc(-c2cccs2)c(-c2cccs2)[nH]1)C(=O)Nc1ccc(F)cc1F` [Example 110, N-[5-[4,5-bis(2-thienyl)-1H-imidazol-2-ylthio]pentyl]-N'-(2,4-difluorophenyl)-N-heptylurea]: the IC50 in assay [1] turned out to be 900 nM; in assay [2] (setting [3]) it was 60 nM.

Take `CCCCCCCN(CCCCCSc1nc(-c2ccccc2)c(-c2ccccc2)[nH]1)C(=O)Nc1c(Cl)cccc1Cl` [Example 64, N'-(2,6-dichlorophenyl)-N-[5-(4,5-diphenyl-1H-imidazol-2-ylthio)pentyl]-N-heptylurea]: the IC50 in assay [1] was found to be 600 nM; in assay [2] (setting [3]) it was 30 nM.

On to `CCCCCCCN(CCCCCSc1nc(-c2ccc(OC)cc2)c(-c2ccc(OC)cc2)[nH]1)C(=O)CC1CCCCC1` [Example 355, N-[5-[4,5-bis(4-methoxyphenyl)-1H-imidazol-2-ylthio]pentyl]-N-heptylcyclohexaneacetamide], for which the IC50 is 30 nM in assay [1] and 10 nM in assay [2] (setting [3]).

Turning to `CCCCCCCN(CCCCCSc1nc(-c2ccccc2)c(-c2ccccc2)n1-c1ccccc1)C(=O)Nc1ccc(F)cc1F` [Example 20], the IC50 in assay [1] is 54500 nM; in assay [2] (setting [3]), 20 nM.

With `CCCCCCCN(CCCCCSc1nc(-c2ccc(OC)cc2)c(-c2ccc(OC)cc2)[nH]1)CCc1ccc(F)cc1F` [Example 353, N-[5-[4,5-bis(4-methoxyphenyl)-1H-imidazol-2-ylthio]pentyl]-2,4-difluoro-N-heptylbenzeneethaneamine], the IC50 in assay [1] was 80 nM; in assay [2] (setting [3]), 240 nM.

As for `CCCCCCCN(CCCCCSc1nc(-c2ccc(N(C)C)cc2)c(-c2ccc(N(C)C)cc2)[nH]1)C(=O)CC1CCCCC1` [Example 354], the figures for the IC50 in assay [1] and in assay [2] (setting [3]) were 20 nM and 50 nM, respectively.

Turning to `CCCCCCCN(CCCCCSc1nc(-c2ccc(OC)cc2)c(-c2ccc(OC)cc2)[nH]1)C(=O)OCC(C)C` [Example 457], the results for the IC50 in assay [1] and in assay [2] (setting [3]) were 100 nM and 834 nM, respectively.

As for `CCCCCCCN(CCCCCSc1nc(C(C)C)c(C(C)C)[nH]1)C(=O)CC1CCCCC1` [Example 347, N-[5-[4,5-bis(1-methylethyl)-1H-imidazol-2-ylthio]pentyl]-N-heptylcyclohexaneacetamide], the IC50 turned out to be 300 nM in assay [1] and 30 nM in assay [2] (setting [3]).

For the molecule `CCCCCCCN(CCCCCSc1nc(-c2ccc(OC)cc2)c(-c2ccc(OC)cc2)[nH]1)C(=O)Nc1ccc(F)cc1F` [Example 118, N-[5-[4,5-bis(4-methoxyphenyl)-1H-imidazol-2-ylthio]pentyl]-N'-(2,4-difluorophenyl)-N-heptylurea], the half-maximal inhibitory concentration (IC50) came out at 100 nM in assay [1] and 170 nM in assay [2] (setting [3]).

In the case of `CCCCCCCN(CCCCCSc1nc(C(C)C)c(C(C)C)[nH]1)C(=O)Oc1ccccc1` [Example 411, phenyl N-[5-(4,5-bis(1-methylethyl)-1H-imidazol-2-ylthio]pentyl]-N-heptylcarbamat], the IC50 came out at 500 nM in assay [1] and 310 nM in assay [2] (In Vitro ACAT IC50, rat hepatic microsomes).

As to `CCCCCCCN(CCCCCSc1nc(-c2ccccc2)c(-c2ccccc2)[nH]1)C(=O)Nc1cccc(F)c1` [Example 53, N-[5-(4,5-diphenyl-1H-imidazol-2-ylthio)pentyl]-N'-(3-fluorophenyl)-N-heptylurea], the IC50 in assay [1] came out at 400 nM; in assay [2] (setting [3]), 17 nM.

Consider `CCCCCCCN(CCCCCSc1nc(-c2ccc(OC)cc2)c(-c2ccc(OC)cc2)[nH]1)C(=O)Cc1ccc(F)cc1F` [Example 351, N-[5-[4,5-bis(4-methoxyphenyl)-1H-imidazol-2-ylthio]pentyl]-2,4-difluoro-N-heptylbenzeneacetamide], for which the values for the IC50 in assay [1] and in assay [2] (setting [3]) were 40 nM and 250 nM, respectively.

Consider `CCCCCCCCOC(=O)N(CCCCCCC)CCCCCSc1nc(-c2ccccc2)c(-c2ccccc2)[nH]1` [Example 405, Octyl [5-(4,5-diphenyl-1H-imidazol-2-ylthio)pentyl]heptylcarbamate], for which the half-inhibitory concentration (IC50) turned out to be 3900 nM in assay [1] and 500 nM in assay [2] (setting [3]).

Regarding `COc1ccc(-c2nc(SCCCCCN(C)C(=O)Nc3ccc(F)cc3F)[nH]c2-c2ccc(OC)cc2)cc1` [Example 204], the 50% inhibitory concentration (IC50) in assay [1] was found to be 400 nM; in assay [2] (setting [3]) it was 500 nM.

Consider `CCCCCCCN(CCCCCSc1nc(-c2ccc(OC)cc2)c(-c2ccc(OC)cc2)[nH]1)C(=O)CCC` [Example 348, N-[5-[4,5-bis(4-methoxyphenyl)-1H-imidazol-2-ylthio]pentyl]-N-heptylbutanamide], for which the results for the concentration for half-maximal inhibition (IC50) in assay [1] and in assay [2] (setting [3]) were 200 nM and 700 nM, respectively.

As for `CCCCCCCN(CCCCCSc1nc(-c2ccccc2)c(-c2ccccc2)[nH]1)C(=O)CCC` [Example 341, N-[5-(4,5-diphenyl-1H-imidazol-2-ylthio)pentyl]-N-heptylbutanamide], the 50% inhibitory concentration (IC50) in assay [1] amounted to 100 nM; in assay [2] (setting [3]), 3 nM.

Regarding `CCCCCCCN(CCCCCSc1nc(-c2ccc(OC)cc2)c(-c2ccc(OC)cc2)[nH]1)C(=O)Cc1c(F)c(F)c(F)c(F)c1F` [Example 350], the half-maximal inhibitory concentration (IC50) in assay [1] was 50 nM; in assay [2] (setting [3]), 605 nM.

For `CCCCCCCN(CCCCCSc1nc(-c2ccc(C(F)(F)F)cc2)c(-c2ccc(C(F)(F)F)cc2)[nH]1)C(=O)Nc1ccc(F)cc1F` [Example 258], the figures for the IC50 in assay [1] and in assay [2] (setting [3]) were 25000 nM and 40000 nM, respectively.

On to `CCCCCCCN(CCCCCSc1nc2c([nH]1)-c1ccccc1OCOc1ccccc1-2)C(=O)Nc1ccc(F)cc1F` [Example 211, N-[5-(1H,9H-dibenz[4,5:8,9][1,3]dioxonino[6,7-d]imidazol-2-ylthio)-pentyl]-N'-(2,4-difluorophenyl)-N-heptylurea], for which the IC50 came out at 700 nM in assay [1] and 32 nM in assay [2] (setting [3]).

Consider `CCCCCCCN(CCCCCSc1nc(-c2ccc(C)cc2)c(-c2ccc(C)cc2)[nH]1)C(=O)Nc1ccc(F)cc1F` [Example 122, N-[5-[4,5-bis(4-methylphenyl)-1H-imidazol-2-ylthio]pentyl]-N'-(2,4-difluorophenyl)-N-heptylurea], for which the IC50 in assay [1] is 300 nM; in assay [2] (setting [3]), 80 nM.
